In paper PMC6803965, “A New Class of β–Pyrrolidino-1,2,3-Triazole Derivatives as β-Adrenergic Receptor Inhibitors: Synthesis, Pharmacological, and Docking Studies” (Molecules, 2019):
≈ marks a conversion by molar mass, not a printed value. Where two headings read alike, the source gives them in different places.

Experiments:
Salmonella paratyphi-B [1] = experiment: Antimicrobial well method, zone of inhibition; format: cell-based
Description: (§1) Antimicrobial activity was carried out as described previously. Briefly, 20 mL of sterile Mueller Hinton agar (MHA) was poured in the petri plates and kept for solidification. After solidification, the test cultures were swabbed on the top of the media and kept for 10 min to dry. The required concentration (1 mg/well) of synthesized compounds 5a–l was added to each well and left for 30 min at RT for compound diffusion. Ketoconazole (fungi) and streptomycin (bacteria) used for positive controls. The zone of inhibition was recorded in mm and the experiment was repeated twice.

[2] = test system: Staphylococcus epidermidis; experiment: Antimicrobial well method, zone of inhibition; format: cell-based
Description: as §1

Proteus vulgaris [3] = experiment: Antimicrobial well method, zone of inhibition; format: cell-based
Description: as §1

Enterobacter aerogenes [4] = experiment: Antimicrobial well method, zone of inhibition; format: cell-based; details: Klebsiella aerogenes
Description: as §1

[5] = test system: Staphylococcus aureus-MRSA; experiment: Antimicrobial well method, zone of inhibition; format: cell-based
Description: as §1

Klebsiella pneumoniae [6] = experiment: Antimicrobial well method, zone of inhibition; format: cell-based
Description: as §1

Salmonella typhimurium [7] = experiment: Antimicrobial well method, zone of inhibition; format: cell-based; details: Salmonella enterica
Description: as §1

Micrococcus luteus [8] = experiment: Antimicrobial well method, zone of inhibition; format: cell-based
Description: as §1

Staphylococcus aureus [9] = experiment: Antimicrobial well method, zone of inhibition; format: cell-based
Description: as §1

Salmonella paratyphi-B [10] = experiment: Minimum inhibitory concentration (MIC); format: cell-based
Description: (§2) The MIC experiment was carried out according to the standard reference methods. Briefly, the required concentrations of synthesized compounds 5a–l were dissolved in DMSO (Dimethylsulfoxide) in concentrations of 500 µg/mL, 250 µg/mL, 125 µg/mL, 62.5 µg/mL, 31.25 µg/mL, 15.6 µg/mL, and […]. An inoculum of 100 µL from each well (96-well plate) was inoculated. For the positive control, ketoconazole (fungi) and streptomycin (bacteria) was used. The MIC values for the tested bacteria were identified as the lowest inhibiting concentration of compound on the agar plate in visual growth.

[11] = test system: Staphylococcus epidermidis; experiment: Minimum inhibitory concentration (MIC); format: cell-based; details: read-out: Minimum inhibitory concentration
Description: as §2

Proteus vulgaris [12] = experiment: Minimum inhibitory concentration (MIC); format: cell-based; details: read-out: Minimum inhibitory concentration
Description: as §2

Enterobacter aerogenes [13] = experiment: Minimum inhibitory concentration (MIC); format: cell-based; details: Klebsiella aerogenes; Enterobacter aerogenes; read-out: Minimum inhibitory concentration
Description: as §2

[14] = test system: Staphylococcus aureus-MRSA; experiment: Minimum inhibitory concentration (MIC); format: cell-based; details: read-out: Minimum inhibitory concentration
Description: as §2

Klebsiella pneumoniae [15] = experiment: Minimum inhibitory concentration (MIC); format: cell-based; details: read-out: Minimum inhibitory concentration
Description: as §2

Shigella flexneri [16] = experiment: Minimum inhibitory concentration (MIC); format: cell-based
Description: as §2

Salmonella typhimurium [17] = experiment: Minimum inhibitory concentration (MIC); format: cell-based; details: Salmonella enterica, read-out: Minimum inhibitory concentration
Description: as §2

Micrococcus luteus [18] = experiment: Minimum inhibitory concentration (MIC); format: cell-based; details: read-out: Minimum inhibitory concentration
Description: as §2

Staphylococcus aureus [19] = experiment: Minimum inhibitory concentration (MIC); format: cell-based; details: read-out: Minimum inhibitory concentration
Description: as §2

Shigella flexneri [20] = experiment: Antimicrobial well method, zone of inhibition; format: cell-based
Description: as §1

Candida albicans = experiment: Antimicrobial well method, zone of inhibition; format: cell-based; details: 1 mg/well
Description: as §1

Malassezia pachydermatis = experiment: Antimicrobial well method, zone of inhibition; format: cell-based
Description: as §1

IMR90 cells = experiment: Cytotoxicity on normal cells, MTT; format: cell-based; details: IMR-90, human normal IMR90 cells, 24 h treatment, read-out: IC50 against IMR90
Description: (§3) The cytotoxic study was carried out as reported previously. Briefly, IMR90, HepG-2, and A549 cells were grown in DMEM (Dulbecco’s Modified Eagle Medium) that contained 10% fetal bovine serum and 1% antibiotics. A total of 15 × 10^3 cells/well were seeded in 96-well plates and incubated under humidified conditions. Cells were treated with varying concentrations of synthesized triazoles for 24 h. After a 24 h treatment, 20 µL aqueous one solution reagent was added to each well and incubated for 3–4 h under a humidified condition. For IMR90 cells, MTT (MTT = 3-(4,5-dimethyl-2-thiazolyl)-2,5-diphenyl-2H-tetrazolium bromide) (5 mg/mL) was added and incubated for 3–4 h in the dark. After incubation, 100 µL of a 10% SDS (Sodium Dodecyl Sulfate) solution (0.01% HCl) was added to each well. The data was taken using an ELISA (enzyme-linked immunosorbent assay) reader at the absorbance of 490 nm for HepG-2 and A549 cells and 570 nm for IMR90 cells. The cell death was calculated using the following formula: Inhibition (%) = ((A − B)/A) × 100 (A—control group, B—treated group).

HepG-2 cells = experiment: Cytotoxicity, aqueous one solution reagent; format: cell-based; details: for IC50: read-out: IC50 against HepG-2
Description: as §3

A549 cells = experiment: Cytotoxicity, aqueous one solution reagent; format: cell-based; details: for IC50: 24 h treatment, read-out: IC50 against A549
Description: as §3

[21] = Homo sapiens, HepG2, 24 h treatment

Row | SMILES | zone of inhibition at 1 mg/well (Salmonella paratyphi-B [1]) [mm] | zone of inhibition at 1 mg/well [2] [mm] | zone of inhibition at 1 mg/well (Proteus vulgaris [3]) [mm] | zone of inhibition at 1 mg/well (Enterobacter aerogenes [4]) [mm] | zone of inhibition at 1 mg/well [5] [mm] | zone of inhibition at 1 mg/well (Klebsiella pneumoniae [6]) [mm] | zone of inhibition at 1 mg/well (Salmonella typhimurium [7]) [mm] | zone of inhibition at 1 mg/well (Micrococcus luteus [8]) [mm] | zone of inhibition at 1 mg/well (Staphylococcus aureus [9]) [mm] | melting point [°C] | MIC (Salmonella paratyphi-B [10]) [µg/mL] | MIC [11] [µg/mL] | MIC (Enterobacter aerogenes [13]) [µg/mL] | MIC ([14]; Staphylococcus aureus-MRSA) [µg/mL] | MIC (Klebsiella pneumoniae [15]) [µg/mL] | MIC (Shigella flexneri [16]) [µg/mL] | MIC (Micrococcus luteus [18]) [µg/mL] | MIC (Staphylococcus aureus [19]) [µg/mL] | zone of inhibition at 1 mg/well (Shigella flexneri [20]) [mm] | zone of inhibition at 1 mg/well (Malassezia pachydermatis) [mm] | other results
1 | C[C@@H]([C@@H](c1ccccc1)n1cc(CC2(O)CCCCC2)nn1)N1CCCC1 [5b, (1R,2S)-1-((1-(1-Phenyl-2-(pyrrolidin-1-yl)propyl)-1H-1,2,3-triazol-4-yl)methyl) cyclohexanol] | 11 | 10 | 12 | 12 | 12 | 10 | 11 | 13 | 10 | 137 to 138 |  |  |  |  |  |  |  |  |  |  | 
2 | C[C@@H]([C@@H](c1ccccc1)n1cc(COC(=O)C=Cc2ccccc2)nn1)N1CCCC1 [5c, (1R,2S)-(1-(1-Phenyl-2-(pyrrolidin-1-yl)propyl)-1H-1,2,3-triazol-4-yl)methyl cinnamate] | 14 | 15 | 10 | 14 | 18 | 12 | 12 | 16 | 16 | 140 to 141 | 250 (≈ 600 µM) | 250 (≈ 600 µM) | 250 (≈ 600 µM) | 125 (≈ 300 µM) | 500 (≈ 1200 µM) | 250 (≈ 600 µM) | 125 (≈ 300 µM) | 125 (≈ 300 µM) | 13 |  | MIC (Proteus vulgaris [12]): 500 µg/mL (≈ 1200 µM); MIC (Salmonella typhimurium [17]; Salmonella typhimurium): 500 µg/mL (≈ 1200 µM)
3 | C[C@@H]([C@@H](c1ccccc1)n1cc(COC(=O)c2ccccc2)nn1)N1CCCC1 [5d, (1R,2S)-(1-(1-Phenyl-2-(pyrrolidin-1-yl)propyl)-1H-1,2,3-triazol-4-yl)methyl benzoate] | 14 | 13 |  | 10 | 16 |  | 12 | 19 | 13 | 129 to 130 | 250 (≈ 640 µM) | 250 (≈ 640 µM) | 500 (≈ 1280 µM) | 125 (≈ 320 µM) |  | 250 (≈ 640 µM) | 62.5 (≈ 160 µM) | 250 (≈ 640 µM) | 13 | 10 | MIC (Salmonella typhimurium [17]; Salmonella typhimurium): 500 µg/mL (≈ 1280 µM); zone of inhibition (Candida albicans): 13 mm
4 | COc1ccc(Br)c(C(=O)OCc2cn(C(c3ccccc3)C(C)N3CCCC3)nn2)c1 [5e, (1R,2S)-(1-(1-Phenyl-2-(pyrrolidin-1-yl)propyl)-1H-1,2,3-triazol-4-yl)methyl-2-bromo-5-methoxy benzoate] | 10 | 10 | 13 | 10 | 10 | 10 | 12 | 15 | 12 |  |  |  |  |  |  |  |  |  | 15 | 14 | zone of inhibition (Candida albicans): 15 mm; IC50 (IMR90 cells): > 250 µM; cytotoxic activity against HepG-2 cells (HepG-2 cells): moderate activity; IC50 (HepG-2 cells; [21]): 164 ± 2.01 µM; cytotoxic / anticancer activity against A549 cells (A549 cells): promising anticancer activity; IC50 (A549 cells; Homo sapiens): 130 ± 0.65 µM
5 | CC([C@@H](c1ccccc1)n1cc(CN(C)[C@@H](C)Cc2ccccc2)nn1)N1CCCC1 (stereo partly drawn) [5f, (1R,2S)-N-Methyl-1-phenyl-N-((1-(1-phenyl-2-(pyrrolidin-1-yl)propyl)-1H-1,2,3-triazol-4-yl)methyl)propan-2-amine] | 14 | 17 |  |  | 15 | 18 |  | 13 |  | 118 to 119 | 250 (≈ 599 µM) | 125 (≈ 299 µM) |  | 250 (≈ 599 µM) | 125 (≈ 299 µM) | 62.5 (≈ 150 µM) | 250 (≈ 599 µM) |  | 19 | 12 | 
6 | CC(C(c1ccccc1)n1cc(COC(=O)c2ccc(C(C)(C)C)cc2)nn1)N1CCCC1 [5i, (1R,2S)-(1-(1-Phenyl-2-(pyrrolidin-1-yl)propyl)-1H-1,2,3-triazol-4-yl)methyl 4-tert-butyl benzoate] | 12 | 11 |  | 14 | 14 | 12 |  | 16 | 16 |  | 500 (≈ 1120 µM) | 500 (≈ 1120 µM) | 250 (≈ 560 µM) | 250 (≈ 560 µM) | 500 (≈ 1120 µM) | 250 (≈ 560 µM) | 125 (≈ 280 µM) | 125 (≈ 280 µM) | 14 | 10 | zone of inhibition (Candida albicans): 12 mm; IC50 (IMR90 cells): > 250 µM; cytotoxic activity against HepG-2 cells (HepG-2 cells): moderate activity; IC50 (HepG-2 cells; [21]): 197 ± 2.34 µM; cytotoxic / anticancer activity against A549 cells (A549 cells): promising anticancer activity; IC50 (A549 cells; Homo sapiens): 134 ± 1.05 µM
7 | CCC(C(=O)OCc1cn(C(c2ccccc2)C(C)N2CCCC2)nn1)c1ccccc1 [5l, (1R,2S)-((1-(1-Phenyl-2-(pyrrolidin-1-yl)propyl)-1H-1,2,3-triazol-4-yl)methyl 2-phenylbutanoate] |  |  |  |  |  |  |  |  |  | 127 to 129 |  |  |  |  |  |  |  |  |  | 12 | 
8 | N.N.[Cl][Pt][Cl] [Cisplatin, reference compound] |  |  |  |  |  |  |  |  |  |  |  |  |  |  |  |  |  |  |  |  | IC50 (HepG-2 cells; 24 h treatment): 22.1 ± 3.08 µM; IC50 (A549 cells): 16.4 ± 3.19 µM
9 | CC(=O)N1CCN(c2ccc(OCC3COC(Cn4ccnc4)(c4ccc(Cl)cc4Cl)O3)cc2)CC1 (stereo not shown) [Ketoconazole, reference compound] |  |  |  |  |  |  |  |  |  |  |  |  |  |  |  |  |  |  |  | 26 | zone of inhibition (Candida albicans): 28 mm
10 | [H]/N=C(/N)N[C@H]1[C@H](O)[C@@H](O)[C@H](O[C@@H]2O[C@@H](C)[C@](O)(C=O)[C@H]2O[C@@H]2O[C@@H](CO)[C@H](O)[C@@H](O)[C@@H]2NC)[C@@H](N/C(N)=N\[H])[C@@H]1O [Streptomycin, reference compound] | 18 | 26 | 30 | 22 | 30 | 20 | 24 | 26 | 14 |  | 30 (≈ 51.6 µM) | 25 (≈ 43 µM) | 25 (≈ 43 µM) |  | 25 (≈ 43 µM) | 6.25 (≈ 10.7 µM) | 6.25 (≈ 10.7 µM) | 6.25 (≈ 10.7 µM) | 30 |  | MIC (Proteus vulgaris [12]): 6.25 µg/mL (≈ 10.7 µM); MIC ([14]; Staphylococcus, MRSA): 6.25 µg/mL (≈ 10.7 µM); MIC (Salmonella typhimurium [17]; TYPHIMURIUM): 6.25 µg/mL (≈ 10.7 µM)
